From patent US11091442B2, “Fluorosulfonyl-containing compound, intermediate thereof, preparation method therefor and use thereof” (SHANGHAI INSTITUTE OF ORGANIC CHEMISTRY, CHINESE ACADEMY OF …, priority 2017, dated 2021)
Values joined by “and” are separate entries in the source; they are usually repeats but may differ in a detail not shown here. Equal values may be shown once.

What was measured:
[1] = Thermal stability on a melting point meter; format: physicochemical; conditions: temperature set at 129-240° C., heating gradient 1.0° C./min
Procedure: This embodiment studies the melting range and thermal stability of 1-(fluorosulfonyl)-2,3-dimethyl-1H-imidazolium trifluoromethanesulfonate
Experimental method: On a melting point meter, the temperature was set at 30-70° C. and the heating gradient at 0.5° C./min, the melting range of the substance of the embodiment was measured to be 62.1-64.2° C.: the temperature was set at 129-240° C. and the heating gradient at 1.0° C./min, the substance slowly bubbled at 135.2° C., and then turned from colorless to pale yellow at 176.5° C., turned to yellow at 185.6° C., turned to dark yellow at 189.9° C., and finally turned to black at 199.4° C.

[2] = Stability in different humidity environments (sealed plastic bottles, 231 days of observation and testing); format: physicochemical; conditions: after 231 days
Procedure: This embodiment studies the stability of 1-(fluorosulfonyl)-2,3-dimethyl-1H-imidazolium trifluoromethanesulfonate in different humidity environments.
Experimental method: 1-(fluorosulfonyl)-2,3-dimethyl-1H-imidazolium trifluoromethanesulfonate was sampled (4.521 g, 4.298 g, 4.273 g) and placed into three plastic bottles (20 mL), which were then sealed with parafilm membrane. The three plastic bottles were placed on an experimental table (22° C.), in a refrigerator (4° C.) or in a dryer (22° C.).

[3] = Stability in deionized water, 19F-NMR tracking of the S-F signal; format: physicochemical; conditions: for S-F signal of the solution: deionized water, room temperature
Procedure: This embodiment studies the stability of 1-(fluorosulfonyl)-2,3-dimethyl-1H-imidazolium trifluoromethanesulfonate in deionized water
The experimental method: 1-(fluorosulfonyl)-2,3-dimethyl-1H-imidazolium trifluoromethanesulfonate ([…], 0.1 mmol) was dissolved in deionized water (1 mL) at room temperature to prepare a solution, and the pH value of the obtained solution was measured to be pH=1, ^19F-NMR tracked the change of the S—F signal of the solution, and the results are shown in Table 3.

| SMILES | melting point | also measured |
| --- | --- | --- |
| CC(=O)c1c(OS(=O)(=O)F)ccc2c(C)cc(=O)oc12 | 163.8 to 165.2 °C |  |
| COc1cc(/C=C/c2ccc(OS(=O)(=O)F)cc2)cc(OC)c1 | 80.1 to 81.1 °C |  |
| O=[N+]([O-])c1ccc(OS(=O)(=O)F)c2ncccc12 | 86.9 to 87.9 °C |  |
| CC(C)(C)OC(=O)[C@H](NS(=O)(=O)F)c1ccccc1 | 81 to 84 °C |  |
| COc1cc(C(=O)NC2CCCN(S(=O)(=O)F)C2)cc(OC)c1OC (centres unmarked) | 184 to 186 °C |  |
| O=S(=O)(F)N1CCC(c2ccccc2)CC1 | 83 to 84 °C |  |
| O=c1ccc2cc(OS(=O)(=O)F)ccc2o1 | 85.3 to 87.9 °C |  |
| O=S(=O)(F)N[C@@H]1CCC[C@H]1OCc1ccccc1 | 76 to 78 °C |  |
| CN1CN(S(=O)(=O)F)c2ccccc21.O=S(=O)(O)C(F)(F)F | 121 to 125 °C |  |
| O=S(=O)(F)NCCc1ccc(O)cc1 | 90 to 92 °C |  |
| O=C(/C=C/c1ccc(S(=O)(=O)F)cc1)c1ccccc1 | 92.8 to 94.2 °C |  |
| Cc1ccc2c(Cl)cc(Cl)c(OS(=O)(=O)F)c2n1 | 64.6 to 66.2 °C |  |
| O=S(=O)(F)N1CCN(S(=O)(=O)F)CC1 | 246 to 248 °C |  |
| CC(C)c1n(S(=O)(=O)F)cc[n+]1C.O=S(=O)([O-])C(F)(F)F | 77 to 80 °C |  |
| O=C(NC1CCN(S(=O)(=O)F)CC1)c1ccccc1 | 205 to 207 °C |  |
| Cc1n(S(=O)(=O)F)cc[n+]1C.O=S(=O)([O-])C(F)(F)F [Compound 4, 1-(fluorosulfonyl)-2,3-dimethyl-1H-imidazolium trifluoromethanesulfonate] | 58 to 60 °C | temperature at which the substance slowly bubbled [1]: 135.2 °C; temperature at which the substance turned from colorless to pale yellow [1]: 176.5 °C; temperature at which the substance turned to black [1]: 199.4 °C; temperature at which the substance turned to dark yellow [1]: 189.9 °C; temperature at which the substance turned to yellow [1]: 185.6 °C; S-F signal in 19F NMR spectrum decreased by ([2]; placed in the dryer (22° C.)): by 4%; S-F signal in 19F NMR spectrum decreased by ([2]; placed in the refrigerator (4° C.)): decreased by 1%; S-F signal in 19F NMR spectrum decreased by ([2]; placed on the experimental table (22° C.)): by 25%; pH value of the obtained solution ([3]; 36 mg, 0.1 mmol dissolved in deionized water (1 mL) at room temperature): 1; S-F signal of the solution ([3]; standing time 12 min): 0.77; S-F signal of the solution ([3]; standing time 30 min): 0.58; S-F signal of the solution ([3]; standing time 58 min): 0.35; S-F signal of the solution ([3]; standing time 2 h): 0.11; S-F signal of the solution ([3]; standing time 2 h 46 min): 0.05 |
| O=S(=O)(F)N1CCC(Cc2ccccc2)CC1 | 54 to 58 °C and 58 to 61 °C and 57 to 61 °C |  |
| COc1cc(C=O)ccc1OS(=O)(=O)F | 50.8 to 51.8 °C |  |
| Cc1ccc(C2CCCN2S(=O)(=O)F)cc1 (centres unmarked) | 53 to 57 °C |  |
| CC(=O)Nc1ccc(OS(=O)(=O)F)cc1 | 150.3 to 152 °C |  |
| O=S(=O)(F)c1ccc(-c2ccc(S(=O)(=O)F)cc2)cc1 | 95.3 to 96.6 °C |  |
